This is an account of results in US7205150B2, “Transgenic plants over-expressing plant ADP-glucose pyrophosphatase” (Universidad Publica de Navarra, priority 2000, dated 2007).

Entries after “also recorded” stand apart in the source; their conditions may differ.

For one assay, the system named is AGPPase (soluble and particulate isoforms). Description: AGPPase enzymatic assay (two-step spectrophotometric determination of G1P produced from ADPG). Type of assay: biochemical, barley (Hordeum vulgare), tomato (Lycopersicon sculentum).
Conditions: not given
Turning to `Nc1ncnc2c1ncn2[C@@H]1O[C@H](COP(=O)(O)OS(=O)(=O)O)[C@@H](OP(=O)(O)O)[C@H]1O` [PAPS, 3′-phosphoadenosine 5′-phosphosulphate], the “Hydrolysis / recognition as substrate by AGPPase” value (from here on “Hydrolysis / recognition”) was “recognises; also recorded: catalyse the hydrolysis”. Still for that read-out and setting: under `Nc1ncnc2c1ncn2[C@@H]1O[C@H](COP(=O)(O)OS(=O)(=O)O)[C@@H](O)[C@H]1O` [APS, adenosine 5′phosphosulphate] stands “recognises; also recorded: catalyse the hydrolysis; also recorded: preferred substrates”; under `Nc1nc2c(ncn2[C@@H]2O[C@H](COP(=O)(O)OP(=O)(O)O[C@H]3O[C@H](CO)[C@@H](O)[C@H](O)[C@@H]3O)[C@@H](O)[C@H]2O)c(=O)[nH]1` [GDP-mannose], “recognises”. In the case of `O=[N+]([O-])c1ccc(OP(=O)(O)Oc2ccc([N+](=O)[O-])cc2)cc1` [bis-PNPP, bis-paranitrophenylphosphate], the “Hydrolysis / recognition” value is given as “recognise”. In the case of `Nc1ncnc2c1ncn2[C@@H]1O[C@H](COP(=O)(O)OP(=O)(O)O)[C@@H](O)[C@H]1O` [ADP], the “Inhibition of AGPPase” value is on record as “inhibited”.

Consider arsenate, for which the “Inhibition of AGPPase” value is recorded as “strongly inhibited”. On to `Nc1ncnc2c1ncn2[C@@H]1O[C@H](COP(=O)(O)O)[C@@H](O)[C@H]1O` [AMP], for which the “Hydrolysis / recognition” value is recorded as “do not hydrolyse” and the “Inhibition of AGPPase” value was “inhibited”. As for `Nc1ncnc2c1ncn2[C@@H]1O[C@H](COP(=O)(O)OP(=O)(O)O[C@H]2O[C@H](CO)[C@@H](O)[C@H](O)[C@@H]2O)[C@@H](O)[C@H]1O` [ADP-mannose], the “Hydrolysis / recognition” value is “recognises”. As for `[O]=[Mo](=[O])([O-])[O-]` [molybdate], the “Inhibition of AGPPase” value is listed as “strongly inhibited”.

As for `Nc1ncnc2c1ncn2[C@@H]1O[C@H](COP(=O)(O)OP(=O)(O)O[C@H]2O[C@H](CO)[C@@H](O)[C@H](O)[C@H]2O)[C@@H](O)[C@H]1O` [ADPG, ADPglucose], the “Hydrolysis / recognition” value is reported as “catalyse the hydrolysis; also recorded: preferred substrates”. Regarding `O=C[C@H](O)[C@@H](O)[C@H](O)[C@H](O)COP(=O)(O)O` [G6P, glucose-6-phosphate], the “Hydrolysis / recognition” value was “do not hydrolyse”. In the case of `OCCS` [β-mercaptoethanol], the “Effect of typical phosphodiesterase inhibitors (reducing and chelating agents) on AGPPase activity” value is reported as “not affected”. With `Nc1ncnc2c1ncn2[C@@H]1O[C@H](COP(=O)(O)OP(=O)(O)OP(=O)(O)O)[C@@H](O)[C@H]1O` [ATP], the “Inhibition of AGPPase” value is “inhibited”. For the molecule `Nc1nc2c(ncn2[C@@H]2O[C@H](COP(=O)(O)OP(=O)(O)O[C@H]3O[C@H](CO)[C@@H](O)[C@H](O)[C@H]3O)[C@@H](O)[C@H]2O)c(=O)[nH]1` [GDP-glucose], the “Hydrolysis / recognition” value is on record as “recognise”. As for `O=C(O)[C@H](O)COP(=O)(O)O` [3-phosphoglycerate], the “Hydrolysis / recognition” value is on record as “do not hydrolyse” and the “Inhibition of AGPPase” value was “inhibited”.

Still in this assay, the particulars now being: Km of ADP-glucose relative to this substrate.
Consider `Nc1ncnc2c1ncn2[C@@H]1O[C@H](COP(=O)(O)OP(=O)(O)OC[C@H]2OC(O)[C@H](O)[C@@H]2O)[C@@H](O)[C@H]1O` (some centres unmarked) [ADP-ribose], for which the “Km / affinity compared with ADP-glucose” value is listed as “four of five times lower”. Same read-out and setting: under `Nc1ncnc2c1ncn2[C@@H]1O[C@H](COP(=O)(O)OS(=O)(=O)O)[C@@H](O)[C@H]1O` [APS, adenosine 5′phosphosulphate] stands “similar”.

The assay is the same for the next values; noted with them: read-out: Michaelis-Menten constant (Km).
Turning to `Nc1ncnc2c1ncn2[C@@H]1O[C@H](COP(=O)(O)OP(=O)(O)O[C@H]2O[C@H](CO)[C@@H](O)[C@H](O)[C@H]2O)[C@@H](O)[C@H]1O` [ADPG, ADPglucose], the Km stood at 500 µM.

As usually defined, the Km is the substrate concentration at which the rate is half of its maximum.
